# Test results as given in ChEMBL document CHEMBL4840306, “Chemodynamic therapy agents Cu(II) complexes of quinoline derivatives induced ER stress and mitochondria-mediated apoptosis in SK-OV-3 cells” (Eur J Med Chem, 2021).
# Assays:
# SK-OV-3 = experiment: Cytotoxicity against human SK-OV-3 cells assessed as reduction in cell viability measured after 48 hrs by MTT assay; type: functional, cell-based; conditions: SK-OV-3, 48 h
# MGC-803 = experiment: Cytotoxicity against human MGC-803 cells assessed as reduction in cell viability measured after 48 hrs by MTT assay; type: functional, cell-based; conditions: MGC-803, 48 h
# L02 = experiment: Cytotoxicity against human HL7702 cells assessed as reduction in cell viability measured after 48 hrs by MTT assay; type: cell-based; conditions: L02, 48 h
# WI-38 = experiment: Cytotoxicity against human WI-38 cells assessed as reduction in cell viability measured after 48 hrs by MTT assay; type: cell-based; conditions: WI-38, 48 h
# T-24 = experiment: Cytotoxicity against human T-24 cells assessed as reduction in cell viability measured after 48 hrs by MTT assay; type: functional, cell-based; conditions: T-24, 48 h
# HepG2 = experiment: Cytotoxicity against human HepG2 cells assessed as reduction in cell viability measured after 48 hrs by MTT assay; type: functional, cell-based; conditions: HepG2, 48 h
smiles,measurement,setting,value
Oc1cccc(/C=N/c2cc3ccccc3nc2-c2ccccc2F)c1O,IC50,SK-OV-3,23.6 µM
same,IC50,MGC-803,> 40 µM
same,IC50,L02,34 µM
same,IC50,WI-38,> 40 µM
same,IC50,T-24,> 40 µM
same,IC50,HepG2,> 40 µM
